This is an account of results in patent US9212140B2, “(5s,8s)-3-(4′-chlor-3′-fluor-4-methlybiphenyl-3-yl)-4-hydroxy-8-methoxy-1-azaspiro[4.5] dec-3-en-2-one (compound A) for treatment” (Bayer Intellectual Property GmbH, priority 2011, dated 2015).

By MTD is commonly meant the largest dose that counted as tolerated. In general, IC50 refers to the midpoint of a concentration-inhibition curve.

Data set [1] in a line: Maximum tolerated dose (MTD) determination, oral. It is filed as in vivo, female nude mice (NMRI nu/nu). The conditions noted are these: for MTD at 21 days: 21-day treatment with 1 administration per day. How it is done: To this end, initially the maximum tolerable dose (MTD) was determined using the following protocol:
Over a period of 1, 2 or 3 weeks, a defined dose of the test substance was administered orally to female nude mice (NMRI-nude (nu/nu) mice, Taconic M&B A/S), and the mice were observed daily for mortality and body weight. The MTD was defined as the highest dose which could be administered without any animal dying during the treatment phase and the 7-day additional observation phase, and without any body weight loss of more than 10% compared to the initial weight.
Comparative Example C.1 was administered to female nude mice (NMRI nu/nu): • Dose: see Tab. 3 • Mode of administration: oral • Vehicle: PEG400/ethanol/Solutol HS 15(70/5/25, v/v/v) • (Solutol HS15: polyoxyethylene ester of 12-hydroxystearic acid) • Administration volume: 10 ml/kg • Scheme: see Tab. 3
The treatment phase was followed by an observation phase of 7 days.
Compound A was administered to female nude mice (NMRI nu/nu): • Dose: see Tab. 4 • Mode of administration: oral • Vehicle: PEG400/ethanol/Solutol HS 15(70/5/25, v/v/v) • Administration volume: 10 ml/kg • Scheme: see Tab. 4

A further data set has as its system human MCF-7 cells. Briefly: MCF-7 breast cancer xenograft model. The settings on record: for T/C (based on tumour area) / T/C (based on tumour weight): 30 days, once per day. It is filed as in vivo, female nude mice (NMRI nu/nu). On the procedure: Xenograft models in immunosuppressed mice were used to determine the antitumour activity in living organisms.
Various xenograft models in which the test substances were administered in their MTD and in lower doses were then used to determine the antitumour activity. In addition to various other models, use was made primarily of the breast cancer model with hormone-dependent human MCF-7 cells in female nude mice (NMRI-nude (nu/nu) mice, Taconic M&B A/S). To this end, on the day prior to the implantation of the tumour cells, a pellet for releasing oestrogen (17β-oestradiol 0.36 mg, release over 60 days) was administered subcutaneously to the mice. The next day, 2 million tumour cells (suspended in medium+Matrigel) 1:1, final 0.1 ml) were then injected subcutaneously into the side of each animal. When the tumours extended to an area of 20-25 mm^2, the mice were randomized into therapy groups and therapy was initiated. The therapy was then continued until an average tumour size of 120 mm^2 had been reached in the control group, which had only been given the vehicle of the test substance, or in one of the treatment groups, with tumour area and body weight being measured 2-3 times per week. At this point in time, the experiment was terminated in all groups and the excised tumours were weighed.
The T/C value was calculated as primary success parameter either using the effect on the tumour weight or using the effect on the tumour area: mean tumour weight/area in the treatment group divided by mean of the tumour weight/area in the vehicle group.
Comparative Example C.1 was subsequently administered to female nude mice (NMRI nu/nu) in the MCF-7 breast cancer xenograft model: • Dose: 7.5 mg/kg • Mode of administration: oral • Vehicle: PEG400/ethanol/Solutol HS 15(70/5/25, v/v/v) • Administration volume: 10 ml/kg • Scheme: 27 days, 2 times per day (2 qd) • Mice: 10
Compound A was subsequently administered to female nude mice (NMRI nu/nu) in the MCF-7 breast cancer xenograft model: • Dose: see Tab. 5 • Mode of administration: oral • Vehicle: PEG400/ethanol/Solutol HS 15(70/5/25, v/v/v) • Administration volume: 10 ml/kg • Scheme: 30 days, once per day (qd) • Mice per dose group: 10-13
For the statistical evaluation of the experiment, the non-parametric ANOVA test was used for the T/C values based on the tumour area, since there was no normal distribution of the measured values. All therapy groups were then compared to the vehicle group using Dunns Post test. The resulting p values are shown in the table (ns: not significant=p>0.05). Since there was a normal distribution of the T/C values based on tumour weight, the ANOVA test for parametric values was used for analysis. All therapy groups were then compared to the vehicle group using the Bonferroni Post test.

Another data set concerns BT-20. Kind of data set: Cell assay, tumour cell proliferation (CellTiter-Glo, 96 h). In kind it is cell-based. The settings on record: Homo sapiens, 96-hour incubation. On the procedure:
(§1) In accordance with the invention, the substances were tested in cell-based assays for the ability of the substances of inhibiting tumour cell proliferation after a 96-hour incubation with the substance. Cell viability was tested using the CellTiter-Glo® luminescent cell viability assay (Promega). The cells were sown at a density of 2000-5000 cells/well (depending on the cell line) in 100 μl growth medium on 96-well microtitre plates. For each cell line examined, cells were sown on a separate plate to determine the luminescence at t=0 hours and t=96 hours. After overnight incubation at 37° C., the luminescence values for the t=0 samples were determined. The dose plates for the t=96 hours points in time were treated with substances diluted with growth medium. The cells were then incubated at 37° C. for 96 hours, and the luminescence values for the t=96 hours sample were then determined/For data analysis, the t=0 values were subtracted from the t=96 hour values for treated and untreated samples. The differences in luminescence in percent between substance-treated samples and control values were used to determine the growth inhibition in percent.
(§2) The substances were tested in the following cell lines which represent the stated indications in an exemplary manner: […]
(In ATP-based viability assays light output follows the ATP content of the culture.)

The next data set has as its system BxPC3. The description is as above. In kind it is cell-based. The settings on record: Homo sapiens, BXPC-3; 96-hour incubation. How it is done:
as §1, §2

A further data set concerns CAL-120. The data set is described as above. In kind it is cell-based. The conditions noted are these: Homo sapiens, 96-hour incubation. How it is done:
as §1, §2

The next data set has as its system DAN-G. The data set is described as above. It is filed as cell-based. The settings on record: 96-hour incubation. How it is done:
as §1, §2

The test system of a further data set is H460. The description is as above. It is filed as cell-based. The settings on record: Homo sapiens, NCI-H460; 96-hour incubation. On the procedure: as §1, §2
The test system of the next data set is LNCaP. Described as above. In kind it is cell-based. The conditions noted are these: Homo sapiens, 96-hour incubation. How it is done: as §1, §2
The test system of a further data set is SNU16. The data set is described as above. It is filed as cell-based. The conditions noted are these: Homo sapiens, SNU-16; 96-hour incubation. On the procedure:
as §1, §2

Data set [2] addresses T1, ACC2 (Homo sapiens (Human), UniProt O00763). Briefly: Human ACC2 enzyme assay A2 (HTRF ADP immunoassay). It is filed as biochemical. The settings on record: read-out: ACC 2 (=A2) IC50. An excerpt:
The ACC2 inhibition data were obtained using two different assays (A2 and B2)
Target sequence in this assay (O00763 39-2458 limits assumed): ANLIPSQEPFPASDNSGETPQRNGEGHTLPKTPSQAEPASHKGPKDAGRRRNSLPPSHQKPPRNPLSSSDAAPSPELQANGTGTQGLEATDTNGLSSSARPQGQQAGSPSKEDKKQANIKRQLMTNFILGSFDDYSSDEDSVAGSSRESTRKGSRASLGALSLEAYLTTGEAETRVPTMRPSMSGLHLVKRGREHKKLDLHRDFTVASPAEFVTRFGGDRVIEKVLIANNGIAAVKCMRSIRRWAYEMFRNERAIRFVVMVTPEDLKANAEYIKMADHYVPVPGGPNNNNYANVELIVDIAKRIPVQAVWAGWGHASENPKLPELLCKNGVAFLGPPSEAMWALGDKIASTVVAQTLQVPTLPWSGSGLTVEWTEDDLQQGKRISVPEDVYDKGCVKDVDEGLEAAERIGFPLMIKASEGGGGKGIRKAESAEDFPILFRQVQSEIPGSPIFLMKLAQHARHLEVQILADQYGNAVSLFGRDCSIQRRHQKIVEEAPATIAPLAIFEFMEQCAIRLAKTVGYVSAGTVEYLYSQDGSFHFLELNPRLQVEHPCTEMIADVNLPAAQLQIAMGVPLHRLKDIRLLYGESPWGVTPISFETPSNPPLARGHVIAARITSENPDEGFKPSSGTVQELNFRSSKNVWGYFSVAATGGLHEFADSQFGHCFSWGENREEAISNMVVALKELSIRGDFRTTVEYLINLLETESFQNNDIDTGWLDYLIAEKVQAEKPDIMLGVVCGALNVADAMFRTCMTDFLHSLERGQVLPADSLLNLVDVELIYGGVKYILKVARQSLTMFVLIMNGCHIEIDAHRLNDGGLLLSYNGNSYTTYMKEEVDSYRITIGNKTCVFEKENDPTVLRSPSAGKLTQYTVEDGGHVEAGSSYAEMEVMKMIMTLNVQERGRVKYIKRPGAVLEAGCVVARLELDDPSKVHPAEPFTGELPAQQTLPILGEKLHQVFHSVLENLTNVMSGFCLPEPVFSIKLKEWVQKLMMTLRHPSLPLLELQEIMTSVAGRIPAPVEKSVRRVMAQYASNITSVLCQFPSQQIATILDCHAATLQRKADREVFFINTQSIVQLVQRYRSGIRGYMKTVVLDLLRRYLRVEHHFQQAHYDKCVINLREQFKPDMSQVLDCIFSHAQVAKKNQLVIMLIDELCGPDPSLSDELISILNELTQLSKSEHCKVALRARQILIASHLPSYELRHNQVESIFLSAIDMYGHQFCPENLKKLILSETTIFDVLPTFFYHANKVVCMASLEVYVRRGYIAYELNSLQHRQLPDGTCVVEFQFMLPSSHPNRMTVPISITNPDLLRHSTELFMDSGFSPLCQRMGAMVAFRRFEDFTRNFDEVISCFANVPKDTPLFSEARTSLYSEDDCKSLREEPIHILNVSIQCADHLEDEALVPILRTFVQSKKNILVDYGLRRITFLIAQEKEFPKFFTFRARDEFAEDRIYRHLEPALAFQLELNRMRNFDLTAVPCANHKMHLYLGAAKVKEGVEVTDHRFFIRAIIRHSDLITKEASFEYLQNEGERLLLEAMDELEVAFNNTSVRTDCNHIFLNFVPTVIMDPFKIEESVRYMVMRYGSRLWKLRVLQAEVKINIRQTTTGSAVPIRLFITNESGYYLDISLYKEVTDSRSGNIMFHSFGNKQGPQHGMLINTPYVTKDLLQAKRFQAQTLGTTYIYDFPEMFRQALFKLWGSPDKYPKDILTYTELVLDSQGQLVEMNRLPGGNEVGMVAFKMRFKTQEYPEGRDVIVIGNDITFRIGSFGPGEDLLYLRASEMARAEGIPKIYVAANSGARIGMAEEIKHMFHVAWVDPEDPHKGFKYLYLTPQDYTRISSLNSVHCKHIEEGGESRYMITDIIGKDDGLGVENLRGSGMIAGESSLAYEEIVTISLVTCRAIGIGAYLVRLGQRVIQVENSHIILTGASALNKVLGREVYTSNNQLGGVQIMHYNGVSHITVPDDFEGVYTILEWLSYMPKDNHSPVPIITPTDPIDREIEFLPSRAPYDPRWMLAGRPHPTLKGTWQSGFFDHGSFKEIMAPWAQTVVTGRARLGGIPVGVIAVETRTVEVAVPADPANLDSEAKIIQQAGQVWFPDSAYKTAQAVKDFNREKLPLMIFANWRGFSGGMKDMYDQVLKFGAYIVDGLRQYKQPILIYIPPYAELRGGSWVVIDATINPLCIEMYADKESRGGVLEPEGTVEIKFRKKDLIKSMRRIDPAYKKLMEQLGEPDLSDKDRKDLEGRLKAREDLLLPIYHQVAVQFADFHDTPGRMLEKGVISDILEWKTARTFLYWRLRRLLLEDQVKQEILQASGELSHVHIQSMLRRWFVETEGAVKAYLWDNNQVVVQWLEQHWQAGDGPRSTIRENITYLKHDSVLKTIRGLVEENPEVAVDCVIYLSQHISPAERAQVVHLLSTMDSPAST
Background: In TR-FRET formats the signal depends on donor and acceptor labels being close together.

For data set [3], the target named is T1, ACC2. Kind of data set: Human ACC2 enzyme assay B2 (ADP-Glo). It is filed as biochemical. The settings on record: read-out: ACC 2 (=B2) IC50. Background: ADP-Glo first removes unused ATP, then detects ADP through luciferase.
Target sequence in this assay (O00763 27-2458 limits assumed): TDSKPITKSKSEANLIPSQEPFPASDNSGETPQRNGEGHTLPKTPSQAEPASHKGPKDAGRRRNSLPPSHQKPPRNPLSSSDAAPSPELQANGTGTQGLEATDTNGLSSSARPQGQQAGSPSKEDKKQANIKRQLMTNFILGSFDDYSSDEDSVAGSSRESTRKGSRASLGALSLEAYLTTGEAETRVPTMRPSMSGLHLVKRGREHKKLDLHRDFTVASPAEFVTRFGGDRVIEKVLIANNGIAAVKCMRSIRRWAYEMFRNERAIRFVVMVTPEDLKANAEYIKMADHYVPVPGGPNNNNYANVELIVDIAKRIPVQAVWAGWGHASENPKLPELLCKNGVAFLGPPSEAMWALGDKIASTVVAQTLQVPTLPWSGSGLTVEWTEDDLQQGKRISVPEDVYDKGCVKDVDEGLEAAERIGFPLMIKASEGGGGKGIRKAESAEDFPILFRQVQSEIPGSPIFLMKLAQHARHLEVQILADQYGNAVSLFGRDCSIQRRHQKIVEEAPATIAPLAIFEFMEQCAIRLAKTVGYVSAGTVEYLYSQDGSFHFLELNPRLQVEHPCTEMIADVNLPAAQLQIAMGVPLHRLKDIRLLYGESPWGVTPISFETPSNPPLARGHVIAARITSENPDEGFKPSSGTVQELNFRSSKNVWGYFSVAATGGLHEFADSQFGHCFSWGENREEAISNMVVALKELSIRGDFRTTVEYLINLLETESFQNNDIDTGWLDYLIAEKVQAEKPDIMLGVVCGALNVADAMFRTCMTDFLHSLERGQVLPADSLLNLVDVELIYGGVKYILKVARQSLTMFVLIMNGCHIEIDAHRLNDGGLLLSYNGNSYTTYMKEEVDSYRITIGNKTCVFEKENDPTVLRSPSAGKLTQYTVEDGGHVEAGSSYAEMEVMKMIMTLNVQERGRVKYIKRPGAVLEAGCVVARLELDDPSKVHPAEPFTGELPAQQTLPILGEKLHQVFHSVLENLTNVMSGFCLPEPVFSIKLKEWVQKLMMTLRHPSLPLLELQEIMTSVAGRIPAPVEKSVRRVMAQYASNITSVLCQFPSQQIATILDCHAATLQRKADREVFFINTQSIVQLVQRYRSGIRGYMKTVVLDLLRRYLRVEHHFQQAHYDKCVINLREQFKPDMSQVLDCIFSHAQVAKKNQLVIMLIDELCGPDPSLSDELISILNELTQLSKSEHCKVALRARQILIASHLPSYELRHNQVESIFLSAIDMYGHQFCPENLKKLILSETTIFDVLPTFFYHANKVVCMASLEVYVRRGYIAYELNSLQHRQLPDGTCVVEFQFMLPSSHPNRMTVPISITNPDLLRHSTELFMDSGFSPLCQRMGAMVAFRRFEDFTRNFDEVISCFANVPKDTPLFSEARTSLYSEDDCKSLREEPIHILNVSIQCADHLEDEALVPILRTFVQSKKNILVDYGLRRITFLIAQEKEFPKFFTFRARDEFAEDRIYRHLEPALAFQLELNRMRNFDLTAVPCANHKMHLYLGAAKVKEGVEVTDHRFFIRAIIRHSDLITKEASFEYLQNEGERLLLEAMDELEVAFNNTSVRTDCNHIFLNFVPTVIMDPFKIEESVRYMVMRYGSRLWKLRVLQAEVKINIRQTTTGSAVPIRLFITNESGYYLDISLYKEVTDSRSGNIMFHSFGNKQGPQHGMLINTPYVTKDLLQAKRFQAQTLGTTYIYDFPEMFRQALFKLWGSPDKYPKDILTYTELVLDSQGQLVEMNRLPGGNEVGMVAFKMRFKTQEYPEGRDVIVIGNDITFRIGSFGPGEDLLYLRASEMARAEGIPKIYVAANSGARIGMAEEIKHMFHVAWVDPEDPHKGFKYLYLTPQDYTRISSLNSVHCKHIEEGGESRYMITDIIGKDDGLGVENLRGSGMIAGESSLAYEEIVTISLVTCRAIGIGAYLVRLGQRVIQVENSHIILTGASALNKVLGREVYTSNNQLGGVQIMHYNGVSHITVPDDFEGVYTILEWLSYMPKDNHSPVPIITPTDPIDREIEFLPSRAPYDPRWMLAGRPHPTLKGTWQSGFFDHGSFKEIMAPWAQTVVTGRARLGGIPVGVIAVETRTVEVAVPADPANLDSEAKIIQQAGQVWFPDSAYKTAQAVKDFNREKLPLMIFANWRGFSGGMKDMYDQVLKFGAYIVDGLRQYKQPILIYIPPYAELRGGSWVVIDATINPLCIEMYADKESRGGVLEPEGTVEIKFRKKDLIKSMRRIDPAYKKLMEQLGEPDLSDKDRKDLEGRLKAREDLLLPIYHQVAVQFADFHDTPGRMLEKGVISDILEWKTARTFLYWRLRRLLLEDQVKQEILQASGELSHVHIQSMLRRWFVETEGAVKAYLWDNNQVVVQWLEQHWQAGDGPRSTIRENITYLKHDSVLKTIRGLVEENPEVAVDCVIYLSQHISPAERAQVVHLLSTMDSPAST
Protocol: Essentially, the enzyme activity is measured by quantifying the adenosine diphosphate (ADP) formed as a byproduct of the enzyme reactions using the ADP-Glo™ detection system from Promega. In this test, initially the adenosine triphosphate (ATP) not consumed in the enzyme reaction is converted quantitatively with an adenylate cyclase (“ADP-GLO reagent”) into cAMP, the adenylate cyclase is then stopped and (“kinase detection reagent”) the ADP formed is subsequently converted into ATP, which is converted in a luciferase-based reaction into a glow luminescence signal.
Typical concentrations were in the range of 2 ng/μl. […] The amount of light emitted was taken as a measure for the amount of ADP formed and thus for the enzyme activity of the hACC2.
[4] abbreviates: 7.5 mg/kg oral 2 qd, up to day 37 of the experiment.

As for `CO[C@H]1CC[C@]2(CC1)NC(=O)C(c1cc(-c3ccc(Cl)cc3)ccc1C)=C2O` [Comparative Example C.1, (5s,8s)-3-(4′-chloro-4-methylbiphenyl-3-yl)-4-hydroxy-8-methoxy-1-azaspiro[4.5]dec-3-en-2-one], the Deaths is on record as 1 of 3 in data set [1] (10 mg/kg oral, 14 days, 2 times a day); 1 of 5 in data set [1] (15 mg/kg oral, 21 days, once per day (Table 3)); 2 of 3 in data set [1] (20 mg/kg oral, 14 days, 2 times a day); 1 of 5 in data set [1] (20 mg/kg oral, 21 days, once per day (Table 3)); 1 of 5 in data set [1] (25 mg/kg oral, 21 days, once per day (Table 3)); 2 of 3 in [1] (30 mg/kg oral, 14 days, 2 times a day). Further, the results for the Deaths in the data set on human MCF-7 cells (continued with 10 mg/kg 2 qd up to day 43) and in the data set with human MCF-7 cells (continued with 12.5 mg/kg 2 qd up to day 43) were 1 of 4 and 4 of 5, respectively. Besides, the MTD at 14 days in data set [1] (female, NMRI nu/nu, mouse, in vivo, po, 14-day treatment with 2 administrations per day) was < 10 mg/kg. For the same compound, in data set [1] (female, NMRI nu/nu, mouse, in vivo, po), the MTD at 21 days is < 15 mg/kg. Moreover, the animals died in the data set with human MCF-7 cells (setting [4]) is on record as 1 of 10. In the data set on human MCF-7 cells (setting [4]), the bodyweight loss result was “low bodyweight loss”. Besides, in the data set with human MCF-7 cells (7.5 mg/kg oral, 27 days, 2 times per day (2 qd)), the “T/C value based on tumour area” value came to 0.86.
In the case of `CO[C@H]1CC[C@]2(CC1)NC(=O)C(c1cc(-c3ccc(Cl)c(F)c3)ccc1C)=C2O` [Compound A, (5s,8s)-3-(4′-chloro-3′-fluoro-4-methylbiphenyl-3-yl)-4-hydroxy-8-methoxy-1-azaspiro[4.5]dec-3-en-2-one], the IC50 came to 187 nM in the data set on BT-20; 165 nM with BxPC3; 266 nM in the data set with CAL-120; 184 nM in the data set with DAN-G; 201 nM in the data set on H460; 334 nM with LNCaP. The compound further showed an IC50 with SNU16 of 164 nM. Moreover, the Deaths in [1] (20 mg/kg oral, 21 days, once per day (Table 4)) is 0 of 5; in data set [1] (30 mg/kg oral, 21 days, once per day (Table 4)), 0 of 5; in [1] (40 mg/kg oral, 21 days, once per day (Table 4)), 1 of 5; in [1] (50 mg/kg oral, 21 days, once per day (Table 4)), 5 of 5; in data set [1] (60 mg/kg oral, 21 days, once per day (Table 4)) it was 5 of 5. Also, the MTD at 21 days in data set [1] (female, NMRI nu/nu (nude), mouse, in vivo, po) was < 40 mg/kg. The “T/C (based on tumour area)” value in the data set with human MCF-7 cells (20 mg/kg oral) is 0.56 (ns); in the data set with human MCF-7 cells (25 mg/kg oral), 0.51 (p < 0.05); in the data set on human MCF-7 cells (30 mg/kg oral) it was 0.49 (p < 0.05); in the data set on human MCF-7 cells (35 mg/kg oral) it was 0.44 (p < 0.05). For the same compound, the “T/C (based on tumour weight)” value is 0.42 (p = 0.003) in the data set on human MCF-7 cells (20 mg/kg oral), 0.37 (p < 0.001) in the data set on human MCF-7 cells (25 mg/kg oral), 0.35 (p < 0.001) with human MCF-7 cells (30 mg/kg oral) and 0.31 (p < 0.001) in the data set with human MCF-7 cells (35 mg/kg oral). In the data set on human MCF-7 cells (MCF-7 xenograft, summary statement), the “antitumoral efficacy (in words)” value is “biologically meaningful and significant antitumoral effects”.
Turning to `COC1CCC2(C=C(c3cc(-c4ccc(Cl)c(Cl)c4)ccc3C)C(=O)N2)CC1` (stereo not shown) [Comparative Example C.2], the IC50 at ACC2 [2] amounted to 1410 nM; at ACC2 [3] it was 2610 nM.
